# Reference: US8987267B2, “2-substituted-8-alkyl-7-OXO-7,8-dihydropyrido[2,3-D]pyrimidine-6-carbonitriles and uses thereof in treating proliferative disorders” (Temple University—of the Commonwealth System of Higher …, priority 2010, dated 2015)
# Tests used:
# A549 = assay: Cytotoxicity assay, viable cell count; assay type: cell-based; conditions: Homo sapiens; A549, NSCLC; 96 h continuous treatment, trypan blue
# Method: (§1) Cells (1×10^5) were plated into 6-well dishes and 24 h later 8-cyclopentyl-2-((4-(4-methylpiperazin-1-yl)phenyl)amino)-7-oxo-7,8-dihydropyrido[2,3-d]pyrimidine-6-carbonitrile (12) was added at five different concentrations over a 2 log dilution (1-100 μM). The total number of viable cells was determined after 96 h of continuous treatment by staining with trypan blue and counting the number of non-staining cells (viable) remaining in each well using a hemacytometer. The percentage of viable cells remaining was calculated as follows: # viable cells (compound treated)/# viable cells (DMSO treated)*100.
# BT20 = assay: Cytotoxicity assay, viable cell count; assay type: cell-based; conditions: Homo sapiens, BT-20; BT20, Breast; 96 h continuous treatment, trypan blue
# Method: as §1
# BT474 = assay: Cytotoxicity assay, viable cell count; assay type: cell-based; conditions: Homo sapiens, BT-474; BT474, ErbB2 + Breast; 96 h continuous treatment, trypan blue
# Method: as §1
# COLO-205 = assay: Cytotoxicity assay, viable cell count; assay type: cell-based; conditions: Homo sapiens; COLO-205, Colon; 96 h continuous treatment, trypan blue
# Method: as §1
# DLD-1 = assay: Cytotoxicity assay, viable cell count; assay type: cell-based; conditions: Homo sapiens; DLD-1, COLO-RECTAL; 96 h continuous treatment, trypan blue
# Method: as §1
# DU145 = assay: Cytotoxicity assay, viable cell count; assay type: cell-based; conditions: Homo sapiens, DU-145; DU145, PROSTATE; 96 h continuous treatment, trypan blue
# Method: as §1
# HCT-15 = assay: Cytotoxicity assay, viable cell count; assay type: cell-based; conditions: Homo sapiens; HCT-15, Colon (MDR elevated); 96 h continuous treatment, trypan blue
# Method: as §1
# HELA = assay: Cytotoxicity assay, viable cell count; assay type: cell-based; conditions: Homo sapiens, Cervical, 96 h continuous treatment, trypan blue
# Method: as §1
# JURKAT = assay: Cytotoxicity assay, viable cell count; assay type: cell-based; conditions: Homo sapiens, T-Cell Lymphoma, 96 h continuous treatment, trypan blue
# Method: as §1
# K562 = assay: Cytotoxicity assay, viable cell count; assay type: cell-based; conditions: Homo sapiens; K562, CML; 96 h continuous treatment, trypan blue
# Method: as §1
# MIA-PaCa-2 = assay: Cytotoxicity assay, viable cell count; assay type: cell-based; conditions: Homo sapiens; MIA-PaCa-2, Pancreatic; 96 h continuous treatment, trypan blue
# Method: as §1
# N87 = assay: Cytotoxicity assay, viable cell count; assay type: cell-based; conditions: N87, Gastric(ErbB2+); 96 h continuous treatment, trypan blue
# Method: as §1
# SK-BR-3 = assay: Cytotoxicity assay, viable cell count; assay type: cell-based; conditions: Homo sapiens; SK-BR-3, ErbB2 + Breast; 96 h continuous treatment, trypan blue
# Method: as §1
# SK-OV-3 = assay: Cytotoxicity assay, viable cell count; assay type: cell-based; conditions: Homo sapiens; SK-OV-3, Ovarian; 96 h continuous treatment, trypan blue
# Method: as §1
# SNU-398 = assay: Cytotoxicity assay, viable cell count; assay type: cell-based; conditions: Homo sapiens; SNU-398, Liver; 96 h continuous treatment, trypan blue
# Method: as §1
# SNU-449 = assay: Cytotoxicity assay, viable cell count; assay type: cell-based; conditions: Homo sapiens; SNU-449, Liver; 96 h continuous treatment, trypan blue
# Method: as §1
# SNU-475 = assay: Cytotoxicity assay, viable cell count; assay type: cell-based; conditions: Homo sapiens; SNU-475, Hepatocellular carcinoma; 96 h continuous treatment, trypan blue
# Method: as §1
# SW480 = assay: Cytotoxicity assay, viable cell count; assay type: cell-based; conditions: Homo sapiens; SW480, COLO-RECTAL; 96 h continuous treatment, trypan blue
# Method: as §1
# U266 = assay: Cytotoxicity assay, viable cell count; assay type: cell-based; conditions: Homo sapiens, U-266; U266, Multiple Myeloma; 96 h continuous treatment, trypan blue
# Method: as §1
# U87 = assay: Cytotoxicity assay, viable cell count; assay type: cell-based; conditions: Homo sapiens, U-87 MG; U87, Glioblastoma; 96 h continuous treatment, trypan blue
# Method: as §1
# Z138C = assay: Cytotoxicity assay, viable cell count; assay type: cell-based; conditions: MCL, 96 h continuous treatment, trypan blue
# Method: as §1
# ABL1 = ABL1 (Homo sapiens, UniProt P00519); assay: Kinase inhibition panel; assay type: biochemical; conditions: 10 μM ATP
# Method: (§2) The compounds in Table 4 were tested for the ability to inhibit the kinase activity of the listed protein kinases.
# CDK2/cyclinA = CDK2/cyclinA (Homo sapiens, UniProt P24941); assay: Kinase inhibition panel; assay type: biochemical; conditions: 10 μM ATP
# Method: as §2
# CDK2/cyclinE = CDK2/cyclinE (Homo sapiens, UniProt P24941); assay: Kinase inhibition panel; assay type: biochemical; conditions: 10 μM ATP
# Method: as §2
# CDK3/cyclinE = CDK3/cyclinE (Homo sapiens, UniProt Q00526); assay: Kinase inhibition panel; assay type: biochemical; conditions: 10 μM ATP
# Method: as §2
# CDK5/p25 = CDK5/p25 (Homo sapiens, UniProt Q00535); assay: Kinase inhibition panel; assay type: biochemical; conditions: 10 μM ATP
# Method: as §2
# CDK5/p35 = CDK5/p35 (Homo sapiens, UniProt Q00535); assay: Kinase inhibition panel; assay type: biochemical; conditions: 10 μM ATP
# Method: as §2
# EPHA1 = EPHA1 (Homo sapiens, UniProt P21709); assay: Kinase inhibition panel; assay type: biochemical; conditions: 10 μM ATP
# Method: as §2
# EphB1 = EphB1 (Homo sapiens, UniProt P54762); assay: Kinase inhibition panel; assay type: biochemical; conditions: 10 μM ATP
# Method: as §2
# FGFR1 = FGFR1 (Homo sapiens, UniProt P11362); assay: Kinase inhibition panel; assay type: biochemical; conditions: 10 μM ATP
# Method: as §2
# LYNB = LYNB (Homo sapiens, UniProt P07948); assay: Kinase inhibition panel; assay type: biochemical; conditions: 10 μM ATP
# Method: as §2
# RIPK2 = RIPK2 (Homo sapiens, UniProt O43353); assay: Kinase inhibition panel; assay type: biochemical; conditions: 10 μM ATP
# Method: as §2
# SNARK/NUAK2 = SNARK/NUAK2 (Homo sapiens, UniProt Q9H093); assay: Kinase inhibition panel; assay type: biochemical; conditions: 10 μM ATP
# Method: as §2
# TGFbR2 = TGFbR2 (Homo sapiens, UniProt P37173); assay: Kinase inhibition panel; assay type: biochemical; conditions: 10 μM ATP
# Method: as §2
# c-Src = c-Src (Homo sapiens, UniProt P12931); assay: Kinase inhibition panel; assay type: biochemical; conditions: 10 μM ATP
# Method: as §2
# Chain of LYNB (P07948 1-491 isoform P07948-2, species assumed): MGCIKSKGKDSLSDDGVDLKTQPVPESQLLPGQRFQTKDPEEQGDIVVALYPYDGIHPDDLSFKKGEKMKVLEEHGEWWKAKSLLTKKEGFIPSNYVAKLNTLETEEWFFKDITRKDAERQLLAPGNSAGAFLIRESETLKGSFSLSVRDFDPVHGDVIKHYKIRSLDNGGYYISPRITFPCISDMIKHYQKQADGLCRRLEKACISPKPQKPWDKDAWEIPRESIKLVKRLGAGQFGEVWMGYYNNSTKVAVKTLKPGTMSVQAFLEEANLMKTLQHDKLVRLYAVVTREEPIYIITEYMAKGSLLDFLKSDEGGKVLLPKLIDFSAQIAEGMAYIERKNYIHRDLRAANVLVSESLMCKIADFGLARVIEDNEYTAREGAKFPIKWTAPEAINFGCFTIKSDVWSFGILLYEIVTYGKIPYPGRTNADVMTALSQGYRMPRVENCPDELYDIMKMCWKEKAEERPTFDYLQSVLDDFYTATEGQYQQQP
# Chain of TGFbR2 (P37173 23-567, species assumed): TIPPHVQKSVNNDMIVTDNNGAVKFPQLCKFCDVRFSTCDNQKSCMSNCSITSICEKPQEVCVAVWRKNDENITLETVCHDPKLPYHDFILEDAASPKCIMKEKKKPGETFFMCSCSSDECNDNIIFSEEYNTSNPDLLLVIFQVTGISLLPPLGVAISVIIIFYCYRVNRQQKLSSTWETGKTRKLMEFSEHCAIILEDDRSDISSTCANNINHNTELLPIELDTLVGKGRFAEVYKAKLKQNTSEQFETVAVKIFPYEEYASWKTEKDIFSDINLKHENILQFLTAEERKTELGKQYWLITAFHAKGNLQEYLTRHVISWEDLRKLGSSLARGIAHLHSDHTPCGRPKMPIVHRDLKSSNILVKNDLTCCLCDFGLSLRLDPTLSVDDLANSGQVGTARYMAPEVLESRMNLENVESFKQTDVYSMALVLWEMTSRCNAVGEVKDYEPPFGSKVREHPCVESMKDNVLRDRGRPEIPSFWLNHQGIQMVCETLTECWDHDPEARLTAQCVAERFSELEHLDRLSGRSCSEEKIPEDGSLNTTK
# Chain of RIPK2 (O43353 whole entry, species assumed): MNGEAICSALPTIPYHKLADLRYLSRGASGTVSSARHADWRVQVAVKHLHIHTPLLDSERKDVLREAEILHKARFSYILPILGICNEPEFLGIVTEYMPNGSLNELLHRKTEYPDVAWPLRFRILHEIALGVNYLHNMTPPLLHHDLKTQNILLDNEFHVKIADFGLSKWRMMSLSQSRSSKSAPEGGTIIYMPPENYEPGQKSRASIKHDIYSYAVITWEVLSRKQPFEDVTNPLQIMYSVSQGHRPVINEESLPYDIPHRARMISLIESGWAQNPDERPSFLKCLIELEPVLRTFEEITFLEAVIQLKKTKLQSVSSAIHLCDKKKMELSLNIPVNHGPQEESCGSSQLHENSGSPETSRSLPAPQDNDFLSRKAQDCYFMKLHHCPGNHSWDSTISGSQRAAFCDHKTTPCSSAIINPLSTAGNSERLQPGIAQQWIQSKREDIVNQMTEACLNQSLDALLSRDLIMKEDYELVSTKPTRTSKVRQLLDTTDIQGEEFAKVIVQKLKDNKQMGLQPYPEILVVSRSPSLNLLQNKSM
# Chain of EPHA1 (P21709 26-976, species assumed): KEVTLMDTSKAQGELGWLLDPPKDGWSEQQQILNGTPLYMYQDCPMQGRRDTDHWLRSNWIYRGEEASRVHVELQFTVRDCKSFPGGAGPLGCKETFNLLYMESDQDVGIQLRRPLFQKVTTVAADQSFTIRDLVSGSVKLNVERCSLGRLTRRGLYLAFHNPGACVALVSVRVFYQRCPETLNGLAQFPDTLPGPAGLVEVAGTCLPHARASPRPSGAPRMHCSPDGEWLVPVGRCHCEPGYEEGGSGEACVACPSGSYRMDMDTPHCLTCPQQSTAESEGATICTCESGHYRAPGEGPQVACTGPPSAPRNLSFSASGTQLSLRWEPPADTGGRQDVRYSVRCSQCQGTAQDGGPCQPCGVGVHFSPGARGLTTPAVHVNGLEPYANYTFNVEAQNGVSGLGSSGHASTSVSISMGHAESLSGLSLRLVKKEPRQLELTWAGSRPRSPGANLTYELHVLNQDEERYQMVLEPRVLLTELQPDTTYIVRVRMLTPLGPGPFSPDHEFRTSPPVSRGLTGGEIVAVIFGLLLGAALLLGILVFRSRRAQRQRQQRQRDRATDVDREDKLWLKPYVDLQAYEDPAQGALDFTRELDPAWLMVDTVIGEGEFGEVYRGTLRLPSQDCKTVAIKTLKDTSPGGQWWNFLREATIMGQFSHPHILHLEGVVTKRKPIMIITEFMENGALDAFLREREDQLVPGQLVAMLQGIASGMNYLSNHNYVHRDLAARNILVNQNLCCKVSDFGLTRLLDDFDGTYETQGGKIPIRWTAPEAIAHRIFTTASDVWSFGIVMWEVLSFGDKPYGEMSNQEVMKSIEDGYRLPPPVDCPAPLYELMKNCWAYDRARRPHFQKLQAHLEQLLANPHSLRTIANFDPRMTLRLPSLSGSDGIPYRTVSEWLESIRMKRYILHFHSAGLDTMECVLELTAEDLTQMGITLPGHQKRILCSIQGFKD
# Chain of SNARK/NUAK2 (Q9H093 whole entry): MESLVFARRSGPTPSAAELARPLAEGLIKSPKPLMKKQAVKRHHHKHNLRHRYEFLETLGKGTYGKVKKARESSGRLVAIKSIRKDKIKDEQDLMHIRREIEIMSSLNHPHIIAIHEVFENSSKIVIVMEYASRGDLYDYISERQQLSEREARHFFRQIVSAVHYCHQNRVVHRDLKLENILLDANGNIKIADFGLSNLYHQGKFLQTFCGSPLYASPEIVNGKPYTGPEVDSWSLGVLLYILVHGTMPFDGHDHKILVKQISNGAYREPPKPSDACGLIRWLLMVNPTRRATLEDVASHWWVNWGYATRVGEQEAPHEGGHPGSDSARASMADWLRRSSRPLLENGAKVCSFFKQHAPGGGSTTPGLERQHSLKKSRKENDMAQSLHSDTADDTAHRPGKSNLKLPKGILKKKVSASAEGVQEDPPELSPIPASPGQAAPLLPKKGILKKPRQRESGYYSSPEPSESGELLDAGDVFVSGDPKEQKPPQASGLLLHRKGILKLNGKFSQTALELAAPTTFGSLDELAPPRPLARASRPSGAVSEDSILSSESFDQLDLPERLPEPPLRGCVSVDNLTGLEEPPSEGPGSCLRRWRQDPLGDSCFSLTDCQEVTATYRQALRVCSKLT
# Chain of c-Src (P12931 whole entry, species assumed): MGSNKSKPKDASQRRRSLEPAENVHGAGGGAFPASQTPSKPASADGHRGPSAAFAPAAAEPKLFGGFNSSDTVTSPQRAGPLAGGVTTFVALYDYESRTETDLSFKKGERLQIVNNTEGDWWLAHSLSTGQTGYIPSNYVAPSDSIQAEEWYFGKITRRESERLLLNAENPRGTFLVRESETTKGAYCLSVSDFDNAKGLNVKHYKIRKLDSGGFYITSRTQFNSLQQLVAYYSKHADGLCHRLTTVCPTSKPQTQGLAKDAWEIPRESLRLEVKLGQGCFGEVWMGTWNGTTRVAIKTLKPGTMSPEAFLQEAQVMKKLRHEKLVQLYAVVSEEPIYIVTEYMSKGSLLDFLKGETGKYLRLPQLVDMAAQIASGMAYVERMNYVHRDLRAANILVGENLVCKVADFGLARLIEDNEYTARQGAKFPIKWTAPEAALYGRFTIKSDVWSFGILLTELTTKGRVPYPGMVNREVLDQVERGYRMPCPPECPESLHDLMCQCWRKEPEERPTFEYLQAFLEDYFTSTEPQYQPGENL
# Chain of FGFR1 (P11362 22-822, species assumed): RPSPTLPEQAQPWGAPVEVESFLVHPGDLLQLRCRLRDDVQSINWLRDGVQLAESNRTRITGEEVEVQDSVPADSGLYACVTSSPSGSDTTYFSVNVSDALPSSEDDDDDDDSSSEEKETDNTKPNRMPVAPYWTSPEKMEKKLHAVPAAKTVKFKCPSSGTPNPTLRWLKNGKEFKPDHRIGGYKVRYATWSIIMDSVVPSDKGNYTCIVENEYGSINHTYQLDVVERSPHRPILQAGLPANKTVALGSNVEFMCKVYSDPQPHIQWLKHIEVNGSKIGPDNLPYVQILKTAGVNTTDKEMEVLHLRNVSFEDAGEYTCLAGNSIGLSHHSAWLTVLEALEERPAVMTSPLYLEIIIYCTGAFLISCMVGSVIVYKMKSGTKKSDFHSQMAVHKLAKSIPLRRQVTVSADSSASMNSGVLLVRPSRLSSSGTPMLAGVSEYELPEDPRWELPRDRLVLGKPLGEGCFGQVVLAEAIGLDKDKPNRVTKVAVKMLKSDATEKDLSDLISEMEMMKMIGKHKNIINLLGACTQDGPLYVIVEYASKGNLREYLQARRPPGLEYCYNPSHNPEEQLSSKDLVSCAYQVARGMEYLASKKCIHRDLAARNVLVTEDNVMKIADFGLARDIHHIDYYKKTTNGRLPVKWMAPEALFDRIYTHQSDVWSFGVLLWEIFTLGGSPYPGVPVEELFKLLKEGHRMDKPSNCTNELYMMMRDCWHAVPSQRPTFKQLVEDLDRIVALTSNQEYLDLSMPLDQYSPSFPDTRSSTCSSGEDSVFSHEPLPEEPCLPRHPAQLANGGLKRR
# Chain of CDK5/p25 (Q00535 whole entry, species assumed): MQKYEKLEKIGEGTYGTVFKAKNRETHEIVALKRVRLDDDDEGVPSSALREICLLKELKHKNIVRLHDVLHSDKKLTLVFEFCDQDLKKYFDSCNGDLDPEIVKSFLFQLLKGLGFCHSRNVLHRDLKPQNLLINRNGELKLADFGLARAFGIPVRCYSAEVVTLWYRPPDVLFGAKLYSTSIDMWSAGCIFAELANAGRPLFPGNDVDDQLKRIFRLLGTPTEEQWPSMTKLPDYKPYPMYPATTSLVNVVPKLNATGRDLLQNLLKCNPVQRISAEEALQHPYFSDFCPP
# Chain of CDK5/p25 (Q15078 99-307 partner limits assumed, species assumed): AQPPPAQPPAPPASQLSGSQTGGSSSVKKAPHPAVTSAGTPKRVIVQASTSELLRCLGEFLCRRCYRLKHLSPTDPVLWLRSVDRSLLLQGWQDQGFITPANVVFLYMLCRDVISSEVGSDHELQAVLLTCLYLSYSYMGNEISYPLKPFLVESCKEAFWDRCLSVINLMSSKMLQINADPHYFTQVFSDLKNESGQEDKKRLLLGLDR
compound,measurement,setting,value
"CN1CCN(c2ccc(Nc3ncc4cc(C#N)c(=O)n(C5CCCC5)c4n3)cc2)CC1 [Compound 12, 8-cyclopentyl-2-((4-(4-methylpiperazin-1-yl)phenyl)amino)-7-oxo-7,8-dihydropyrido[2,3-d]pyrimidine-6-carbonitrile]",GI50,A549,200 nM
same,GI50,BT20,100 nM
same,GI50,BT474,250 nM
same,GI50,COLO-205,200 nM
same,GI50,DLD-1,100 nM
same,GI50,DU145,750 nM
same,GI50,HCT-15,400 nM
same,GI50,HELA,750 nM
same,GI50,JURKAT,150 nM
same,GI50,K562,500 nM
same,GI50,MIA-PaCa-2,250 nM
same,GI50,N87,900 nM
same,GI50,SK-BR-3,600 nM
same,GI50,SK-OV-3,750 nM
same,GI50,SNU-398,500 nM
same,GI50,SNU-449,750 nM
same,GI50,SNU-475,300 nM
same,GI50,SW480,100 nM
same,GI50,U266,200 nM
same,GI50,U87,100 nM
same,GI50,Z138C,25 nM
same,IC50,ABL1,75.6 nM
same,IC50,CDK2/cyclinA,97.3 nM
same,IC50,CDK2/cyclinE,770 nM
same,IC50,CDK3/cyclinE,3220 nM
same,IC50,CDK5/p25,264 nM
same,IC50,CDK5/p35,181 nM
same,IC50,EPHA1,37.1 nM
same,IC50,EphB1,26.7 nM
same,IC50,FGFR1,68.2 nM
same,IC50,LYNB,6650 nM
same,IC50,RIPK2,40.8 nM
same,IC50,SNARK/NUAK2,20.7 nM
same,IC50,TGFbR2,62.3 nM
same,IC50,c-Src,93 nM
